From patent US20210254138A1, “SIALIC ACID TRANSPORTER PROTEINS AS BIOMARKERS AND DRUG TARGETS” (Quadram Institute Bioscience, priority 2018, published 2021)

Experiments:
[1] = system: R. gnavus ATCC 29149 wild-type; assay: Growth on sole carbon source, wild-type strain; type: cell-based; settings: 11.1 mM in YCFA, anaerobic
Method: R. gnavus ATCC 29149 was routinely grown in an anaerobic cabinet (Don Whitley, Shipley, UK) in BHI-YH as previously described (Crost et al., 2013). Growth on single carbon sources utilized anaerobic basal YCFA medium (Duncan et al., 2002) supplemented with 11.1 mM of specific mono- or oligosaccharides (2,7-anhydro-Neu5Ac, 3'Sialyllactose (3'SL) or glucose). The bacteria were grown to late exponential phase for RNA extraction, the culture was performed in 14 ml tubes. Growth was determined spectrophotometrically by monitoring changes in optical density at […] compared to the same medium without bacterium (ΔOD595 nm) hourly for 10 hours.
(§1) The ability of the mutants to utilise sialic acids and sialoconjugates was assessed by supplementing YCFA with 11.1 mM of 2,7-anhydro-Neu5Ac, 3'SL, glucose or Neu5Ac in triplicate 200 μl cultures in 96-well microtiter plates. The OD595 nm was measured hourly for 10 h in an infinite F50 plate reader (Tecan, UK) housed within an anaerobic cabinet connected to Magellan V7.0 software.

[2] = system: R. gnavus ATCC 29149 nan deletion mutants; assay: Growth on sole carbon source, nan deletion mutants; type: cell-based; settings: 11.1 mM in YCFA, anaerobic
From the text: R. gnavus mutants were generated using the ClosTron methodology (Heap et al., 2010), which inserts an erythromycin resistance cassette into the gene of interest. Target sites were identified using the Pertuka method (Perutka et al., 2004). The re-targeted introns were synthesised and ligated into the pMTL007C-E2 vector by ATUM (MenloPark, USA). The plasmids were then transformed into E. coli CA434 using the heat-shock protocol, and the recombinant clones selected for chloramphenicol resistance. Recombinant E. coli cells were grown overnight in 10 ml LB, 1 ml of the overnight culture was pelleted and washed with PBS. The E. coli cell pellet was resuspended in 200 μl of an R. gnavus overnight culture and the cell suspension spotted onto a non-selective BHI-YH plate. […]
as §1

[3] = system: CC(=O)N[C@H]1[C@H]([C@H](O)[C@H](O)CO)OC(O)(C(=O)O)C[C@@H]1O; assay: purified protein, by the assay type; settings: other: substrate of RgNanA; Michaelis-Menten fit; pH 7.0
Method: Aldolase cleavage was measured by monitoring the decrease in absorbance at 340 nm (A340 nm) as NADH is converted to NAD by lactate dehydrogenase in a coupled reaction where pyruvate is released from sialic acid by the aldolase. Reactions were performed in a 100 μl volume with final concentrations of 150 μM NADH (Sigma, St Louis, USA), 0.5 U LDH (Sigma, St Louis, USA), 10 mM sialic acid (Neu5Ac or 2,7-anhydro-Neu5Ac) and 1.5 μg purified RgNanA or EcNanA (E. coli aldolase CAS: 9027-60-5, Carbosynth, UK) in 50 mM Na-phosphate buffer (pH 7.0). The reactions were performed at 37° C. and monitored using FLUOstar OPTIMA (BMG LABTECH). For kinetics experiments, the sialic acid concentration was varied at 20, 10, 5, 4, 2, 1, 0.4, 0.2, 0.1 mM and the initial rate of reaction determined for each concentration in triplicate before analysis was performed by fitting the data to a Michaelis-Menten using Graph Pad Prism (V 5.03).
The substrate specificity of RgNanA was determined using a coupled activity assay where pyruvate released during the conversion of sialic acid to ManNAc is converted to lactate by a lactate dehydrogenase and the subsequent loss of absorbance at 340 nm measured as NADH is converted to NAD^+. A commercially available E. coli sialic acid aldolase (EcNanA) was included as a control and enzymes were tested for activity against 2,7-anhydro-Neu5Ac and Neu5Ac. […] The kinetic parameters of RgNanA were determined by calculating the initial rate of reaction with increasing Neu5Ac concentrations. A Michaelis-Menten curve was fitted to the data and kinetic parameters determined (FIG. 7b).

[4] = target: RgSBP (RUMGNA_02698); solute-binding protein of the sialic acid ABC transporter, full-length excluding the signal sequence (residues 1-29), N-terminal His-tag …; assay: Isothermal titration calorimetry (ITC) of 2,7-anhydro-Neu5Ac binding to RgSBP (FIG. 4A); design: species or system Ruminococcus gnavus ATCC 29149; settings: 50 mM Tris-HCl pH 7.5, cell protein 100 μM, syringe ligand 2 mM, single-binding site model
From the text: The Nan cluster in R. gnavus ATCC 29149 is predicted to encode a putative sialic acid transporter of the SAT2 family, with RUMGNA_02698 predicted to be a solute binding protein (SBP) and RUMGNA_02697 and 02696 predicted to be two permeases (Crost et al., 2013; 2016). To determine the ligand specificity of R. gnavus SBP protein (RgSBP), the corresponding gene was amplified by PCR from the R. gnavus ATCC 29149 genome, cloned and heterologously expressed in E. coli and the His6-tag recombinant protein purified by immobilised metal ion affinity chromatography (IMAC).
The affinity of the interaction between RgSBP and sialic acid ligands was further assessed by ITC.
The full-length RgSBP excluding the signal sequence (residues 1-29), the full length RgNanA and full length RUMGNA_02695 were amplified from R. gnavus ATCC 29149 gDNA, and cloned into the pHISTEV expression system, introducing a His-tag at the N terminus using primers listed in Table S1. DNA manipulation was carried out in E. coli DH5α cells. […] Protein purification was assessed by standard SDS-polyacrylamide gel electrophoresis using NuPAGE Novex 4-12% Bis-Tris gels (Life Technologies, Paisley, UK). Protein concentration was measured with NanoDrop 1000 UV-Vis
Spectrophotometer (Thermo Fischer Scientific, Wilmington, Del.) and using the extinction coefficient calculated by Protparam (ExPASy-Artimo, 2012) from the peptide sequence. […]

`CC(=O)N[C@H]1[C@H]([C@H](O)[C@H](O)CO)O[C@@](O[C@H]2[C@@H](O)[C@@H](CO)O[C@@H](O[C@H]3[C@H](O)[C@@H](O)C(O)O[C@@H]3CO)[C@@H]2O)(C(=O)O)C[C@@H]1O` (some centres unmarked) [3'SL, 3'-sialyllactose] was tested, and the “utilisation as a sole carbon source (growth)” value [1] was “able to utilise” and the “growth on substrate as sole carbon source” value [2] was “no growth was detected”.

Molecule “RgNanA (RUMGNA_02692, sialic acid aldolase) (Mediterraneibacter gnavus ATCC 29149)” has a Km [3] of 1473 ± 98 µM and a kcat [3] of 2.757 ± 0.033 s⁻¹.

`CC(=O)NC1C(O)CC2(C(=O)O)OC(C(O)CO)C1O2` (centres unmarked) [2,7-anhydro-Neu5Ac] was tested, and the Kd [4] was 2240 nM.
